Experimental data: article PMC11157767 (Molecular Cancer, 2024)

Tested on: TRIM24-MET-i cells
Settings: GSEA, v. DMSO
Description: The number of unique and shared differentially expressed genes between each comparison are shown in parentheses. A linear regression line is depicted along with Pearson’s correlation coefficient (r) and its associated p-value. […] Common negatively enriched genesets between all three comparisons are in bold. c, Heatmaps showing expression of Hallmark_Myc_Target_v1/2 genes for indicated cells and treatment comparisons (TRIM-MET cells were treated in vitro, TFG-MET cells in vivo). Select leading edge genes from GSEA are labeled.

Compound: C[C@@H](Oc1cc(-c2cnn(C3CCNCC3)c2)cnc1N)c1c(Cl)ccc(F)c1Cl [Crizotinib]
- ES GOCC_MITOCHONDRIAL_ENVELOPE: -0.5203
- ES GOCC_ORGANELLE_INNER_MEMBRANE: -0.5635
- ES GOCC_PRERIBOSOME: -0.8837
- ES GOCC_RIBONUCLEOPROTEIN_COMPLEX: -0.6028
- ES GOCC_RIBOSOME: -0.6378
- ES GOMF_STRUCTURAL_CONSTITUENT_OF_RIBOSOME: -0.6065
- ES HALLMARK_ADIPOGENESIS: -0.3925
- ES HALLMARK_ALLOGRAFT_REJECTION: -0.3891
- ES HALLMARK_ANDROGEN_RESPONSE: -0.4501
- ES HALLMARK_ANGIOGENESIS: -0.5001
- ES HALLMARK_APICAL_JUNCTION: -0.2207
- ES HALLMARK_APICAL_SURFACE: 0.438
- ES HALLMARK_APOPTOSIS: -0.353
- ES HALLMARK_CHOLESTEROL_HOMEOSTASIS: -0.4271
- ES HALLMARK_COAGULATION: -0.3066
- ES HALLMARK_COMPLEMENT: -0.2741
- ES HALLMARK_DNA_REPAIR: -0.3968
- ES HALLMARK_E2F_TARGETS: -0.4061
- ES HALLMARK_EPITHELIAL_MESENCHYMAL_TRANSITION: -0.2384
- ES HALLMARK_ESTROGEN_RESPONSE_EARLY: -0.4462
- ES HALLMARK_ESTROGEN_RESPONSE_LATE: -0.2995
- ES HALLMARK_G2M_CHECKPOINT: -0.4157
- ES HALLMARK_GLYCOLYSIS: -0.4578
- ES HALLMARK_HEDGEHOG_SIGNALING: -0.4357
- ES HALLMARK_HYPOXIA: -0.2949
- ES HALLMARK_IL2_STAT5_SIGNALING: -0.5104
- ES HALLMARK_IL6_JAK_STAT3_SIGNALING: -0.3352
- ES HALLMARK_INFLAMMATORY_RESPONSE: -0.4227
- ES HALLMARK_INTERFERON_ALPHA_RESPONSE: 0.333
- ES HALLMARK_INTERFERON_GAMMA_RESPONSE: -0.2664
- ES HALLMARK_KRAS_SIGNALING_DN: 0.421
- ES HALLMARK_KRAS_SIGNALING_UP: -0.3522
- ES HALLMARK_MITOTIC_SPINDLE: 0.3203
- ES HALLMARK_MTORC1_SIGNALING: -0.615
- ES HALLMARK_MYC_TARGETS_V1: -0.7224
- ES HALLMARK_MYC_TARGETS_V2: -0.8712
- ES HALLMARK_MYOGENESIS: 0.2133
- ES HALLMARK_NOTCH_SIGNALING: -0.3408
- ES HALLMARK_OXIDATIVE_PHOSPHORYLATION: -0.5351
- ES HALLMARK_P53_PATHWAY: -0.3345
- ES HALLMARK_PANCREAS_BETA_CELLS: 0.2531
- ES HALLMARK_PEROXISOME: -0.2701
- ES HALLMARK_PI3K_AKT_MTOR_SIGNALING: -0.3822
- ES HALLMARK_PROTEIN_SECRETION: -0.253
- ES HALLMARK_TGF_BETA_SIGNALING: -0.4216
- ES HALLMARK_TNFA_SIGNALING_VIA_NFKB: -0.4566
- ES HALLMARK_UNFOLDED_PROTEIN_RESPONSE: -0.6894
- ES HALLMARK_UV_RESPONSE_DN: 0.2824
- ES HALLMARK_UV_RESPONSE_UP: -0.4491
- ES HALLMARK_WNT_BETA_CATENIN_SIGNALING: -0.3428
- ES KRIGE_RESPONSE_TO_TOSEDOSTAT_6HR_DN: -0.7282
- ES KRIGE_RESPONSE_TO_TOSEDOSTAT_24HR_DN: -0.7493
- ES LEE_BMP2_TARGETS_DN: -0.726
- ES PUJANA_CHEK2_PCC_NETWORK: -0.6234
- ES WEI_MYCN_TARGETS_WITH_E_BOX: -0.7486
- NES GOBP_NCRNA_PROCESSING: -2.807
- NES GOBP_RIBONUCLEOPROTEIN_COMPLEX_BIOGENESIS: -2.6966
- NES GOBP_RIBOSOME_BIOGENESIS: -2.885
- NES GOCC_MITOCHONDRIAL_ENVELOPE: -1.997
- NES GOCC_ORGANELLE_INNER_MEMBRANE: -2.127
- NES GOCC_PRERIBOSOME: -2.754
- NES GOCC_RIBONUCLEOPROTEIN_COMPLEX: -2.312
- NES GOCC_RIBOSOME: -2.274
- NES GOMF_STRUCTURAL_CONSTITUENT_OF_RIBOSOME: -2.105
- NES HALLMARK_ADIPOGENESIS: -1.373
- NES HALLMARK_ALLOGRAFT_REJECTION: -1.343
- NES HALLMARK_ANDROGEN_RESPONSE: -1.464
- NES HALLMARK_ANGIOGENESIS: -1.355
- NES HALLMARK_APICAL_JUNCTION: -0.7717
- NES HALLMARK_APICAL_SURFACE: 1.391
- NES HALLMARK_APOPTOSIS: -1.211
- NES HALLMARK_CHOLESTEROL_HOMEOSTASIS: -1.341
- NES HALLMARK_COMPLEMENT: -0.9577
- NES HALLMARK_DNA_REPAIR: -1.352
- NES HALLMARK_E2F_TARGETS: -1.43
- NES HALLMARK_EPITHELIAL_MESENCHYMAL_TRANSITION: -0.8343
- NES HALLMARK_ESTROGEN_RESPONSE_EARLY: -1.563
- NES HALLMARK_ESTROGEN_RESPONSE_LATE: -1.046
- NES HALLMARK_G2M_CHECKPOINT: -1.457
- NES HALLMARK_GLYCOLYSIS: -1.603
- NES HALLMARK_HEDGEHOG_SIGNALING: -1.2
- NES HALLMARK_HYPOXIA: -1.03
- NES HALLMARK_IL2_STAT5_SIGNALING: -1.788
- NES HALLMARK_IL6_JAK_STAT3_SIGNALING: -1.065
- NES HALLMARK_INFLAMMATORY_RESPONSE: -1.474
- NES HALLMARK_INTERFERON_ALPHA_RESPONSE: 1.217
- NES HALLMARK_INTERFERON_GAMMA_RESPONSE: -0.9329
- NES HALLMARK_KRAS_SIGNALING_DN: 1.674
- NES HALLMARK_KRAS_SIGNALING_UP: -1.231
- NES HALLMARK_MITOTIC_SPINDLE: 1.318
- NES HALLMARK_MTORC1_SIGNALING: -2.165
- NES HALLMARK_MYC_TARGETS_V1: -2.537
- NES HALLMARK_MYC_TARGETS_V2: -2.6498
- NES HALLMARK_MYOGENESIS: 0.8749
- NES HALLMARK_NOTCH_SIGNALING: -0.9083
- NES HALLMARK_OXIDATIVE_PHOSPHORYLATION: -1.871
- NES HALLMARK_P53_PATHWAY: -1.1707
- NES HALLMARK_PANCREAS_BETA_CELLS: 0.7398
- NES HALLMARK_PEROXISOME: -0.8785
- NES HALLMARK_PI3K_AKT_MTOR_SIGNALING: -1.243
- NES HALLMARK_PROTEIN_SECRETION: -0.8206
- NES HALLMARK_TGF_BETA_SIGNALING: -1.271
- NES HALLMARK_TNFA_SIGNALING_VIA_NFKB: -1.6076
- NES HALLMARK_UNFOLDED_PROTEIN_RESPONSE: -2.272
- NES HALLMARK_UV_RESPONSE_DN: 1.115
- NES HALLMARK_UV_RESPONSE_UP: -1.536
- NES HALLMARK_WNT_BETA_CATENIN_SIGNALING: -0.9746
- NES KRIGE_RESPONSE_TO_TOSEDOSTAT_6HR_DN: -2.811
- NES KRIGE_RESPONSE_TO_TOSEDOSTAT_24HR_DN: -2.908
- NES LEE_BMP2_TARGETS_DN: -2.799
- NES PUJANA_CHEK2_PCC_NETWORK: -2.394
- NES WEI_MYCN_TARGETS_WITH_E_BOX: -2.882
